{"source": "patent US4202891A", "about": "“15-Oxygenated sterol compounds and the use of such compounds to inhibit the biosynthesis of sterols” (priority 1977, dated 1980)", "key": {"[1]": {"tested_on": "serum cholesterol", "assay": "Effect on serum cholesterol levels in rats, daily subcutaneous injection (Examples 41, 42)", "assay_type": "in vivo, rat (male, Sprague-Dawley)", "details": "day 3", "summary_of_the_method": "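Male Sprague-Dawley rats (110–190 g, chow-fed) received test sterols subcutaneously once daily, most at 5 mg in 0.25 ml triolein. 5α-Cholest-8(14)-en-3β-ol-15-one was given at 2 mg in 0.2 ml or 5 mg in 0.5 ml olive oil. Controls received vehicle; serum cholesterol was measured periodically, in duplicate.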"}, "[2]": {"assay": "Adverse observations in rats on 0.2% ketone diet", "assay_type": "in vivo, rat (male, Sprague-Dawley)", "details": "0.2% in diet", "method": "(§1) Another experiment following essentially the procedure of Example 43 was performed in which the 5α-cholest-8(14)-en-3β-ol-15-one was incorporated into the Cholesterol Free Test Diet at a concentration of 0.2%."}, "[3]": {"tested_on": "plasma cholesterol", "assay": "Plasma cholesterol concentration in mice, ketone in diet (Example 47)", "assay_type": "in vivo, mouse", "details": "0.2% in diet; after eight days; 7-week-old mice", "method": "Another dietary experiment with 5β-cholest-8(14)-en-3β-ol-15-one was performed using 7-week-old mice. Five mice were fed the ketone at a level of 0.2% in a diet which was essentially free of animal sterols for eight days. Five control pair-fed mice were fed the same diet to which the ketone was not added. The mean plasma cholesterol concentration in the ketone group after the eight day experiment was 35.8(±3.6, standard error of mean) mg per 100 ml of plasma while the corresponding value for the pair-fed group was 114.4 (±3.4, standard error of mean). It should be noted that very closely matched pairfeeding is difficult to perform in mice of this age due to the small amounts of food which are consumed and which must be accurately determined in such experiments."}, "[4]": {"assay": "Food consumption of rats, sterol in diet", "assay_type": "in vivo, rat (male, Sprague-Dawley)", "source_text": "(§2) Male rats of the Sprague-Dawley strain were purchased from Sprague-Dawley Farms (Madison, Wisconsin). The rats were maintained on a light (7:00 A.M.-5:30 P.M.)--dark (5:30 P.M.-7:00 A.M.) cycle and fed a Cholesterol Free Test Diet (United States Biochemical Corporation, Cleveland, Ohio) for a period of 13 days prior to the initiation of the experimental period. Six days prior to the initiation of the experimental period blood samples were taken for assay of serum cholesterol concentration and, based upon the results of these analyses, rats were divided into 3 groups with approximately the same mean serum cholesterol concentration. The rats were then individually housed in metabolic cages (Econo-Metabolism Units, Maryland Plastics, New York, New York) for 6 days prior to the initiation of the experimental period. The animals were maintained on the light-dark cycle throughout the experimental period.\n(§3) The individual animals were weighed daily throughout the experimental period. Food consumption by the individual rats was similarly recorded daily. No significant spillage of the food or contamination of the food by feces or urine was possible due to the nature of the matabolic cage and the food receptacles utilized.\n(§4) 5α-Cholest-8(14)-en-3β-ol-15-one (500 mg), prepared and purified as described in Example 1, was added in small portions to 500 g of the Cholesterol Free Test Diet in a 2 liter glass stoppered bottle. After each addition of the sterol to the diet, the bottle was rolled and shaken thoroughly. The resulting 0.1% diet with respect to the 5α-cholest-8(14)-en-3β-ol-15-one was stored at 4° C. Prior to use in feeding, the diet was allowed to warm to room temperature (~25° C.).\n(§5) 2. Ketone group--7 rats with free access to the Cholesterol Free Test Diet containing 0.1% 5α-cholest-8(14)-en-3β-ol-15-one.\nas §1"}, "[5]": {"assay": "Body weight of rats, sterol in diet", "assay_type": "in vivo, rat (male, Sprague-Dawley)", "source_text": "as §2, §3, §4, §5, §1"}, "[6]": {"details": "2 mg s.c. once a day in 0.2 ml olive oil"}, "[7]": {"details": "5 mg s.c. once a day in 0.5 ml olive oil"}}, "data": [{"smiles": "CC(C)CCC[C@@H](C)[C@H]1CC(=O)C2=C3CC[C@H]4C[C@@H](O)CC[C@]4(C)[C@H]3CC[C@@]21C", "note": "[5α-Cholest-8(14)-en-3β-ol-15-one, 5α-cholest-8(14)-en-3β-ol-15-one]", "values": [{"measurement": "% Reduction (relative to olive oil-treated rats)", "setting": "[1]; [6]", "value": 12, "unit": "%"}, {"measurement": "Serum Cholesterol (Mean ± S.E.M.)", "setting": "[1]; [6]", "value": "64.5 ± 2.5", "unit": "mg per 100 ml"}, {"measurement": "% Reduction (relative to olive oil-treated rats)", "setting": "[1]; [7]", "value": 22, "unit": "%"}, {"measurement": "Serum Cholesterol (Mean ± S.E.M.)", "setting": "[1]; [7]", "value": "59.6 ± 2.2", "unit": "mg per 100 ml"}, {"measurement": "diarrhea", "setting": "[2]; day 8", "value": "4 of the rats in the ketone group were developing diarrhea"}, {"measurement": "death", "setting": "[2]; day 9", "value": "One of these rats died the following day"}, {"measurement": "loose stools", "setting": "[2]; day 9", "value": "Two other rats in this group showed loose stools on day 9"}, {"measurement": "mean plasma cholesterol concentration (standard error of mean)", "setting": "[3]", "value": "35.8 mg per 100 ml of plasma"}, {"measurement": "food consumption relative to ad libidum group (in words)", "setting": "[4]; 0.1% in diet", "value": "significantly less than that of the rats in the ad libidum group"}, {"measurement": "Food consumption", "setting": "[4]; 0.1% in diet, day 0", "value": "10.4 ± 0.7", "unit": "g"}, {"measurement": "Food consumption", "setting": "[4]; 0.1% in diet, day 1", "value": "5.1 ± 0.3", "unit": "g"}, {"measurement": "Food consumption", "setting": "[4]; 0.1% in diet, day 2", "value": "7.1 ± 0.3", "unit": "g"}, {"measurement": "Food consumption", "setting": "[4]; 0.1% in diet, day 3", "value": "5.5 ± 0.3", "unit": "g"}, {"measurement": "Food consumption", "setting": "[4]; 0.1% in diet, day 4", "value": "7.1 ± 0.5", "unit": "g"}, {"measurement": "Food consumption", "setting": "[4]; 0.1% in diet, day 5", "value": "5.8 ± 0.5", "unit": "g"}, {"measurement": "Food consumption", "setting": "[4]; 0.1% in diet, day 6", "value": "6.6 ± 0.5", "unit": "g"}, {"measurement": "Food consumption", "setting": "[4]; 0.1% in diet, day 7", "value": "7.5 ± 0.5", "unit": "g"}, {"measurement": "food consumption relative to ad libidum group (in words)", "setting": "[4]; 0.2% in diet", "value": "significantly less than that of the rats in the ad libidum group"}, {"measurement": "Daily food consumption", "setting": "[4]; 0.2% in diet, day 0", "value": "7.2 ± 0.6", "unit": "g"}, {"measurement": "Daily food consumption", "setting": "[4]; 0.2% in diet, day 1", "value": "4.4 ± 1.1", "unit": "g"}, {"measurement": "Daily food consumption", "setting": "[4]; 0.2% in diet, day 2", "value": "4.8 ± 0.4", "unit": "g"}, {"measurement": "Daily food consumption", "setting": "[4]; 0.2% in diet, day 3", "value": "4.8 ± 0.2", "unit": "g"}, {"measurement": "Daily food consumption", "setting": "[4]; 0.2% in diet, day 4", "value": "5.5 ± 0.4", "unit": "g"}, {"measurement": "Daily food consumption", "setting": "[4]; 0.2% in diet, day 5", "value": "5.5 ± 0.3", "unit": "g"}, {"measurement": "Daily food consumption", "setting": "[4]; 0.2% in diet, day 6", "value": "5.4 ± 0.2", "unit": "g"}, {"measurement": "Daily food consumption", "setting": "[4]; 0.2% in diet, day 7", "value": "5.1 ± 0.2", "unit": "g"}, {"measurement": "Daily food consumption", "setting": "[4]; 0.2% in diet, day 8", "value": "4.3 ± 0.6", "unit": "g"}, {"measurement": "Body weight", "setting": "[5]; 0.1% in diet, day 0", "value": "130.4 ± 4.4", "unit": "g"}, {"measurement": "Body weight", "setting": "[5]; 0.1% in diet, day 1", "value": "126.6 ± 4.8", "unit": "g"}, {"measurement": "Percentage change in weight from initial in individual rats", "setting": "[5]; 0.1% in diet, day 1", "value": "-3.0 ± 0.7", "unit": "%"}, {"measurement": "Body weight", "setting": "[5]; 0.1% in diet, day 2", "value": "121.4 ± 4.4", "unit": "g"}, {"measurement": "Percentage change in weight from initial in individual rats", "setting": "[5]; 0.1% in diet, day 2", "value": "-7.0 ± 0.7", "unit": "%"}, {"measurement": "Body weight", "setting": "[5]; 0.1% in diet, day 3", "value": "120.6 ± 4.6", "unit": "g"}, {"measurement": "Percentage change in weight from initial in individual rats", "setting": "[5]; 0.1% in diet, day 3", "value": "-7.7 ± 0.7", "unit": "%"}, {"measurement": "Body weight", "setting": "[5]; 0.1% in diet, day 4", "value": "118.5 ± 4.0", "unit": "g"}, {"measurement": "Percentage change in weight from initial in individual rats", "setting": "[5]; 0.1% in diet, day 4", "value": "-9.1 ± 0.7", "unit": "%"}, {"measurement": "Body weight", "setting": "[5]; 0.1% in diet, day 5", "value": "119.4 ± 4.3", "unit": "g"}, {"measurement": "Percentage change in weight from initial in individual rats", "setting": "[5]; 0.1% in diet, day 5", "value": "-8.5 ± 0.5", "unit": "%"}, {"measurement": "Body weight", "setting": "[5]; 0.1% in diet, day 6", "value": "118.9 ± 4.8", "unit": "g"}, {"measurement": "Percentage change in weight from initial in individual rats", "setting": "[5]; 0.1% in diet, day 6", "value": "-8.7 ± 1.0", "unit": "%"}, {"measurement": "Body weight", "setting": "[5]; 0.1% in diet, day 7", "value": "116.5 ± 4.9", "unit": "g"}, {"measurement": "Percentage change in weight from initial in individual rats", "setting": "[5]; 0.1% in diet, day 7", "value": "-10.8 ± 1.3", "unit": "%"}, {"measurement": "Percentage change in weight from initial in individual rats", "setting": "[5]; 0.1% in diet, day 8", "value": "-10.2 ± 0.9", "unit": "%"}, {"measurement": "Body weight", "setting": "[5]; 0.1% in diet, day 8, listed as Ketone", "value": "117.3 ± 4.7", "unit": "g"}, {"measurement": "Body weight", "setting": "[5]; 0.1% in diet, day 8, listed as ketone", "value": 117.3, "unit": "g"}, {"measurement": "Body weight", "setting": "[5]; 0.2% in diet, day 0", "value": "152.3 ± 5.5", "unit": "g"}, {"measurement": "Body weight", "setting": "[5]; 0.2% in diet, day 1", "value": "151.3 ± 4.7", "unit": "g"}, {"measurement": "Body weight", "setting": "[5]; 0.2% in diet, day 2", "value": "145.4 ± 4.9", "unit": "g"}, {"measurement": "Body weight", "setting": "[5]; 0.2% in diet, day 3", "value": "139.0 ± 4.8", "unit": "g"}, {"measurement": "Body weight", "setting": "[5]; 0.2% in diet, day 4", "value": "137.4 ± 4.9", "unit": "g"}, {"measurement": "Body weight", "setting": "[5]; 0.2% in diet, day 5", "value": "134.5 ± 4.5", "unit": "g"}, {"measurement": "Body weight", "setting": "[5]; 0.2% in diet, day 6", "value": "130.7 ± 5.1", "unit": "g"}, {"measurement": "Body weight", "setting": "[5]; 0.2% in diet, day 7", "value": "127.7 ± 5.2", "unit": "g"}, {"measurement": "Body weight", "setting": "[5]; 0.2% in diet, day 8, listed as Ketone", "value": "122.3 ± 5.8", "unit": "g"}, {"measurement": "Body weight", "setting": "[5]; 0.2% in diet, day 8, listed as ketone", "value": 122.3, "unit": "g"}]}]}
